Here are results for 8 compounds from ChEMBL document CHEMBL1148223, “Isolation and phytotoxicity of apocarotenoids from Chenopodium album” (2004).

What is called inhibition is the relative decrease from the control value, in per cent.

Calls of active or inactive are those of the source. The calls are words filed in the database; no cut-off is given here.

Common to all, as to assay type: functional
Test [1] concerns Lactuca sativa. Briefly: Reduction of Lactuca sativa length development. Further details: scale not given: the % may be the effect or the level left.
In test [2] the test system is Lactuca sativa. Briefly: Reduction of Lactuca sativa seeds germination at 100 uM daily for 5 days relative to control. The following applies: for inhibition at 100 µM: Lactuca sativa, 120 h. Further details: Activity: scale not given: the % may be the effect or the level left.
Test [3] relates to Lactuca sativa. Briefly: Reduction of Lactuca sativa root length at 0.1 uM relative to control. Further details: scale not given: the % may be the effect or the level left.
Test [4] concerns Lactuca sativa. Nature of the test: Reduction of Lactuca sativa shoot length at 0.1 uM relative to control. Further details: scale not given: the % may be the effect or the level left.

As to `CC(=O)/C=C/[C@@]1(O)C(C)=CC(=O)CC1(C)C`, the Activity with Lactuca sativa [1] came out at 30%.

As for `CC1=CC(=O)CC(C)(C)[C@@]1(O)/C=C/[C@@H](C)O` [BLUMENOL A], the Activity with Lactuca sativa [1] came out at 30%.

`CC(=O)/C=C/C=C(C)/C=C/[C@H]1C(C)=C[C@H](O)CC1(C)C` displayed an Activity with Lactuca sativa [2] of 20%.

With `CC1=CC(=O)CC(C)(C)[C@@]1(O)/C=C/C(C)=C/CO`, the outcome in the test on Lactuca sativa [2] was Active.

Turning to `CC(=O)C=C=C1C(C)(C)C[C@H](O)C[C@@]1(C)O`, the Activity worked out at 20% in the test on Lactuca sativa [3] and 30% in the test on Lactuca sativa [4].

In turn, `CC(=O)/C=C/[C@H]1C(C)=CC(=O)CC1(C)C` returned an inhibition at 100 µM with Lactuca sativa [2] of 30%.

With `CC(=O)/C=C/C=C(C)/C=C/[C@@]1(O)C(C)=CC(=O)CC1(C)C`, the Activity in the test with Lactuca sativa [2] is reported as 20%.

`CC(=O)/C=C/[C@H]1C(C)=C[C@H](O)CC1(C)C`: in the test on Lactuca sativa [2], the inhibition at 100 µM amounted to 30%.
